Measured values published in paper PMC11392934 (Nature Communications, 2024).

What was measured:
LacY = target: T1, LacY (Escherichia coli, UniProt P02920); test: inhibition of lactose-dependent NADPH production in MleP-LacY vesicles; assay type: biochemical; conditions: 100 µM D-lactose, pH 7, 30 °C; competitive; coupled read-out
T1 sequence (P02920 1-417): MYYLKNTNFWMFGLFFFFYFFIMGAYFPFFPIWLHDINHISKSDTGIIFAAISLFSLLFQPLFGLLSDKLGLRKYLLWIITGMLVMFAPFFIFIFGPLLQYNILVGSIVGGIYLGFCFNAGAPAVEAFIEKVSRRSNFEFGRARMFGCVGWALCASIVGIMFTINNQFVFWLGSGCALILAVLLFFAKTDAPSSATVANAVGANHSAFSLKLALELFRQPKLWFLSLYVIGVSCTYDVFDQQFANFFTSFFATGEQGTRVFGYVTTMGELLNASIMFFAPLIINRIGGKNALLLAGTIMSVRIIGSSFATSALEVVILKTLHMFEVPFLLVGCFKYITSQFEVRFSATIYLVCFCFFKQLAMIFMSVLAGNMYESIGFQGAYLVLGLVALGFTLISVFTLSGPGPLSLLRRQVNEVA

MleS = target: T2, MleS (Lactococcus lactis, UniProt Q48662); test: initial H+ consumption rate by pH microelectrode; assay type: biochemical; conditions: product inhibition; 5 mM L-malate, pH 7, 30 °C
T2 sequence (Q48662 1-540): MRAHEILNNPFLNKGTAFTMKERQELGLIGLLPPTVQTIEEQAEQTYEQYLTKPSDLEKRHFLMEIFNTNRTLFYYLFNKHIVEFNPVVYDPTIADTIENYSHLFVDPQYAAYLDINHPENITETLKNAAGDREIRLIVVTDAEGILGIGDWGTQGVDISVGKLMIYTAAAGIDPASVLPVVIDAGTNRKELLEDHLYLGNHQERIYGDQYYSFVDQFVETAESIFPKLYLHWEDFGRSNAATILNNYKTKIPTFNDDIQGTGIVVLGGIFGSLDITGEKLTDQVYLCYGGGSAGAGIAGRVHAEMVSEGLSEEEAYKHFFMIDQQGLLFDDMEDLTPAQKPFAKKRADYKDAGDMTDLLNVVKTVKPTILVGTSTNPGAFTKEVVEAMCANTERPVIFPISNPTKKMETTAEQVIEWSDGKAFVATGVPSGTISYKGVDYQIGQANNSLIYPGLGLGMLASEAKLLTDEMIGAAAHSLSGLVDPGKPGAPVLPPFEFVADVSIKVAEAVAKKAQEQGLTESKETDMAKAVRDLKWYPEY

| SMILES | effect at 20 mM (LacY) | % reduction of initial rate at 25 mM (MleS) [%] |
| --- | --- | --- |
| OC[C@H]1O[C@@H](S[C@@H]2O[C@H](CO)[C@H](O)[C@H](O)[C@H]2O)[C@H](O)[C@@H](O)[C@H]1O [thiodigalactoside] | NADPH fluorescence is reduced in the presence non-hydrolysable substrates |  |
| C[C@H](O)C(=O)O [L-lactate] |  | 50 |
| CS[C@@H]1O[C@H](CO)[C@H](O)[C@H](O)[C@H]1O [methyl-β-D-thiogalactoside] | methyl-β-D-thiogalactoside (TMG) and thiodigalactoside (TDG) |  |
